In ChEMBL document CHEMBL1201861, “Genomics of Drug Sensitity in Cancer screening data, Wellcome Trust Sanger Institute”:

How the values were obtained:
Assay in all cases: cells
MDA-MB-175-VII = assay type: functional, cell-based, Homo sapiens; details: Homo sapiens, MDA-MB-175-VII
CAL-54 = assay type: functional, cell-based, Homo sapiens; details: Homo sapiens, CAL-54;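 note: growth inhibition of CAL-54 cells, read out by a viability measurement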
Description: SANGER: Inhibition of human CAL-54 cell growth in a cell viability assay.

MHH-PREB-1 = assay type: functional, cell-based; details: Homo sapiens;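 note: cell viability assay measuring inhibition of proliferation of human MHH-PREB-1 cells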
Description: SANGER: Inhibition of human MHH-PREB-1 cell growth in a cell viability assay.

NMC-G1 = assay type: functional, cell-based, Homo sapiens; details: Homo sapiens, NMC-G1;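 note: growth inhibition of the NMC-G1 cell line, measured with a cell viability read-out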
Description: SANGER: Inhibition of human NMC-G1 cell growth in a cell viability assay.

BCPAP = assay type: functional, cell-based, Homo sapiens; details: Homo sapiens, BCPAP;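 note: growth inhibition of BCPAP cells, read out in a cell viability assay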
Description: SANGER: Inhibition of human BCPAP cell growth in a cell viability assay.

Ca-Ski = assay type: functional, cell-based; details: Homo sapiens;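 note: cell viability assay measuring inhibition of Ca-Ski cell growth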
Description: SANGER: Inhibition of human Ca-Ski cell growth in a cell viability assay.

HEL = assay type: functional, cell-based, Homo sapiens; details: Homo sapiens, HEL;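 note: growth inhibition of HEL cells, read out with a cell viability assay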
Description: SANGER: Inhibition of human HEL cell growth in a cell viability assay.

COLO-800 = assay type: functional, cell-based, Homo sapiens; details: Homo sapiens, COLO-800;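 note: growth inhibition of COLO-800 cells, read out with a cell viability assay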
Description: SANGER: Inhibition of human COLO-800 cell growth in a cell viability assay.

MCF7 = assay type: functional, cell-based, Homo sapiens; details: Homo sapiens, MCF7;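 note: growth inhibition of human MCF7 cells, read out with a cell viability assay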
Description: SANGER: Inhibition of human MCF7 cell growth in a cell viability assay.

BHY = assay type: functional, cell-based, Homo sapiens; details: Homo sapiens, BHY;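 note: cell growth inhibition read out by a viability assay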
Description: SANGER: Inhibition of human BHY cell growth in a cell viability assay.

SK-MEL-2 = assay type: functional, cell-based, Homo sapiens; details: Homo sapiens, SK-MEL-2;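 note: growth inhibition of human SK-MEL-2 cells measured with a cell viability assay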
Description: SANGER: Inhibition of human SK-MEL-2 cell growth in a cell viability assay.

EW-18 = assay type: functional, cell-based; details: Homo sapiens;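 note: growth inhibition of EW-18 cells, read out by a cell viability assay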
Description: SANGER: Inhibition of human EW-18 cell growth in a cell viability assay.

NB5 = assay type: functional, cell-based, Homo sapiens; details: Homo sapiens, NB5;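 note: growth inhibition of NB5 cells, read out as cell viability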
Description: SANGER: Inhibition of human NB5 cell growth in a cell viability assay.

KYSE-410 = assay type: functional, cell-based, Homo sapiens; details: Homo sapiens, KYSE-410;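 note: growth inhibition of KYSE-410 cells, measured through a cell viability readout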
Description: SANGER: Inhibition of human KYSE-410 cell growth in a cell viability assay.

HAL-01 = assay type: functional, cell-based; details: Homo sapiens;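 note: growth inhibition of human HAL-01 cells, read out with a cell viability assay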
Description: SANGER: Inhibition of human HAL-01 cell growth in a cell viability assay.

NCI-H1155 = assay type: functional, cell-based; details: Homo sapiens;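 note: cell growth inhibition measured by a viability assay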
Description: SANGER: Inhibition of human NCI-H1155 cell growth in a cell viability assay.

KYSE-450 = assay type: functional, cell-based; details: Homo sapiens;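 note: cell growth inhibition measured by a viability assay in human KYSE-450 cells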
Description: SANGER: Inhibition of human KYSE-450 cell growth in a cell viability assay.

A498 = assay type: functional, cell-based, Homo sapiens; details: Homo sapiens, A498;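 note: growth inhibition of human A498 cells, read out with a cell viability assay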
Description: SANGER: Inhibition of human A498 cell growth in a cell viability assay.

GMS-10 = assay type: functional, cell-based, Homo sapiens; details: Homo sapiens, GMS-10;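 note: growth inhibition of GMS-10 cells, read out as cell viability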
Description: SANGER: Inhibition of human GMS-10 cell growth in a cell viability assay.

LCLC-97TM1 = assay type: functional, cell-based, Homo sapiens; details: Homo sapiens, LCLC-97TM1;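 note: cell viability assay measuring growth inhibition of human LCLC-97TM1 cells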
Description: SANGER: Inhibition of human LCLC-97TM1 cell growth in a cell viability assay.

ONS-76 = assay type: functional, cell-based, Homo sapiens; details: Homo sapiens, ONS-76;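 note: growth inhibition of human ONS-76 cells, read out with a cell viability assay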
Description: SANGER: Inhibition of human ONS-76 cell growth in a cell viability assay.

A673 = assay type: functional, cell-based, Homo sapiens; details: Homo sapiens, A673;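 note: growth inhibition of human A673 cells, read out through a cell viability assay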
Description: SANGER: Inhibition of human A673 cell growth in a cell viability assay.

GOTO = assay type: functional, cell-based, Homo sapiens; details: Homo sapiens, GOTO;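 note: growth inhibition of GOTO cells, read out by a cell viability assay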
Description: SANGER: Inhibition of human GOTO cell growth in a cell viability assay.

NCI-H1792 = assay type: functional, cell-based, Homo sapiens; details: Homo sapiens, NCI-H1792;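 note: growth inhibition of human NCI-H1792 cells, read out as cell viability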
Description: SANGER: Inhibition of human NCI-H1792 cell growth in a cell viability assay.

CAL-33 = assay type: functional, cell-based, Homo sapiens; details: Homo sapiens, CAL-33;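 note: growth inhibition of CAL-33 cells, read out with a cell viability assay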
Description: SANGER: Inhibition of human CAL-33 cell growth in a cell viability assay.

CCRF-CEM = assay type: functional, cell-based; details: Homo sapiens;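 note: inhibition of CCRF-CEM cell growth, measured by a cell viability assay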
Description: SANGER: Inhibition of human CCRF-CEM cell growth in a cell viability assay.

MFM-223 = assay type: functional, cell-based, Homo sapiens; details: Homo sapiens, MFM-223
Description: SANGER: Inhibition of human MFM-223 cell growth in a cell viability assay.

ASPC1 = assay type: functional, cell-based, Homo sapiens; details: Homo sapiens, ASPC1;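 note: growth inhibition of AsPC-1 cells, read out with a cell viability assay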
Description: SANGER: Inhibition of human AsPC-1 cell growth in a cell viability assay.

MZ7-mel = assay type: functional, cell-based, Homo sapiens; details: Homo sapiens, MZ7-mel;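 note: growth inhibition of human MZ7-mel cells, measured by a cell viability assay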
Description: SANGER: Inhibition of human MZ7-mel cell growth in a cell viability assay.

NCI-H1651 = assay type: functional, cell-based, Homo sapiens; details: Homo sapiens, NCI-H1651;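 note: Read-out is a cell viability assay, with IC50 expressing inhibition of NCI-H1651 cell growth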
Description: SANGER: Inhibition of human NCI-H1651 cell growth in a cell viability assay.

NCI-H1437 = assay type: functional, cell-based, Homo sapiens; details: Homo sapiens, NCI-H1437;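 note: growth inhibition of human NCI-H1437 cells, read out by a cell viability assay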
Description: SANGER: Inhibition of human NCI-H1437 cell growth in a cell viability assay.

TE-12 = assay type: functional, cell-based; details: Homo sapiens;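 note: growth inhibition of TE-12 cells, read out by a cell viability assay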
Description: SANGER: Inhibition of human TE-12 cell growth in a cell viability assay.

GI-ME-N = assay type: functional, cell-based, Homo sapiens; details: Homo sapiens, GI-ME-N;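 note: growth inhibition of human GI-ME-N cells, read out with a cell viability assay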
Description: SANGER: Inhibition of human GI-ME-N cell growth in a cell viability assay.

NCI-H1648 = assay type: functional, cell-based, Homo sapiens; details: Homo sapiens, NCI-H1648;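 note: cell viability assay measuring inhibition of NCI-H1648 cell growth, from the Sanger screening data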
Description: SANGER: Inhibition of human NCI-H1648 cell growth in a cell viability assay.

HDLM-2 = assay type: functional, cell-based; details: Homo sapiens;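 note: cell viability assay measuring suppression of HDLM-2 proliferation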
Description: SANGER: Inhibition of human HDLM-2 cell growth in a cell viability assay.

TE-1 = assay type: functional, cell-based, Homo sapiens; details: Homo sapiens, TE-1
Description: SANGER: Inhibition of human TE-1 cell growth in a cell viability assay.

GP5d = assay type: functional, cell-based, Homo sapiens; details: Homo sapiens, GP5d;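 note: growth inhibition of human GP5d cells, read out with a cell viability assay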
Description: SANGER: Inhibition of human GP5d cell growth in a cell viability assay.

H4 = assay type: functional, cell-based; details: Homo sapiens
Description: SANGER: Inhibition of human H4 cell growth in a cell viability assay.

MOLT-4 = assay type: functional, cell-based; details: Homo sapiens;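 note: growth inhibition of MOLT-4 cells, determined with a cell viability readout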
Description: SANGER: Inhibition of human MOLT-4 cell growth in a cell viability assay.

697 = assay type: functional, cell-based; details: Homo sapiens
Description: SANGER: Inhibition of human 697 cell growth in a cell viability assay.

VMRC-RCZ = assay type: functional, cell-based; details: Homo sapiens;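 note: growth inhibition measured with a cell viability assay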
Description: SANGER: Inhibition of human VMRC-RCZ cell growth in a cell viability assay.

SW756 = assay type: functional, cell-based, Homo sapiens; details: Homo sapiens, SW756;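 note: growth inhibition of human SW756 cells, read out with a cell viability assay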
Description: SANGER: Inhibition of human SW756 cell growth in a cell viability assay.

ES3 = assay type: functional, cell-based, Homo sapiens; details: Homo sapiens, ES3;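 note: growth inhibition of ES3 cells, read out with a cell viability assay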
Description: SANGER: Inhibition of human ES3 cell growth in a cell viability assay.

HuO-3N1 = assay type: functional, cell-based, Homo sapiens; details: Homo sapiens, HuO-3N1;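 note: cell viability readout used to measure how strongly compounds suppress proliferation of human HuO-3N1 cells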
Description: SANGER: Inhibition of human HuO-3N1 cell growth in a cell viability assay.

NCI-H82 = assay type: functional, cell-based; details: Homo sapiens;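 note: growth inhibition of NCI-H82 cells, measured with a cell viability readout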
Description: SANGER: Inhibition of human NCI-H82 cell growth in a cell viability assay.

M059J = assay type: functional, cell-based, Homo sapiens; details: Homo sapiens, M059J;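 note: growth inhibition of M059J cells, read out with a cell viability assay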
Description: SANGER: Inhibition of human M059J cell growth in a cell viability assay.

CAL-39 = assay type: functional, cell-based, Homo sapiens; details: Homo sapiens, CAL-39;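 note: cell viability assay measuring growth inhibition of CAL-39 cells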
Description: SANGER: Inhibition of human CAL-39 cell growth in a cell viability assay.

DSH1 = assay type: functional, cell-based, Homo sapiens; details: Homo sapiens, DSH1;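 note: growth inhibition of human DSH1 cells, measured with a cell viability readout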
Description: SANGER: Inhibition of human DSH1 cell growth in a cell viability assay.

SK-MEL3 = assay type: functional, cell-based, Homo sapiens, SK-MEL-3; details: Homo sapiens, SK-MEL3;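 note: growth inhibition of human SK-MEL-3 cells, read out with a cell viability assay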
Description: SANGER: Inhibition of human SK-MEL-3 cell growth in a cell viability assay.

SK-N-DZ = assay type: functional, cell-based, Homo sapiens; details: Homo sapiens, SK-N-DZ;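 note: growth inhibition of the cancer cell line, read out through a viability assay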
Description: SANGER: Inhibition of human SK-N-DZ cell growth in a cell viability assay.

HCC1806 = assay type: functional, cell-based, Homo sapiens; details: Homo sapiens, HCC1806;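 note: growth inhibition of the cancer cell line, determined with a cell viability assay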
Description: SANGER: Inhibition of human HCC1806 cell growth in a cell viability assay.

COc1cc(F)c(F)c(Nc2ccc(I)cc2F)c1NS(=O)(=O)C1(CC(O)CO)CC1 (stereo not drawn)
IC50 (MDA-MB-175-VII): 2570 nM
IC50 (CAL-54): > 5000 nM
IC50 (MHH-PREB-1): > 5000 nM
IC50 (NMC-G1): > 5000 nM
IC50 (BCPAP): 2180 nM
IC50 (Ca-Ski): > 5000 nM
IC50 (HEL): > 5000 nM
IC50 (COLO-800): > 5000 nM
IC50 (MCF7): > 5000 nM
IC50 (BHY): 3290 nM
IC50 (SK-MEL-2): 101 nM
IC50 (EW-18): 2770 nM
IC50 (NB5): 978 nM
IC50 (KYSE-410): 3350 nM
IC50 (HAL-01): > 5000 nM
IC50 (NCI-H1155): > 5000 nM
IC50 (KYSE-450): > 5000 nM
IC50 (A498): > 5000 nM
IC50 (GMS-10): 3800 nM
IC50 (LCLC-97TM1): 279 nM
IC50 (ONS-76): 500 nM
IC50 (A673): > 5000 nM
IC50 (GOTO): > 5000 nM
IC50 (NCI-H1792): 2450 nM
IC50 (CAL-33): 1560 nM
IC50 (CCRF-CEM): > 5000 nM
IC50 (MFM-223): > 5000 nM
IC50 (ASPC1): 1070 nM
IC50 (MZ7-mel): 375 nM
IC50 (NCI-H1651): > 5000 nM
IC50 (NCI-H1437): 702 nM
IC50 (TE-12): > 5000 nM
IC50 (GI-ME-N): 1580 nM
IC50 (NCI-H1648): > 5000 nM
IC50 (HDLM-2): > 5000 nM
IC50 (TE-1): > 5000 nM
IC50 (GP5d): > 5000 nM
IC50 (H4): 3350 nM
IC50 (MOLT-4): > 5000 nM
IC50 697: > 5000 nM
IC50 (VMRC-RCZ): > 5000 nM
IC50 (SW756): 1230 nM
IC50 (ES3): > 5000 nM
IC50 (HuO-3N1): > 5000 nM
IC50 (NCI-H82): > 5000 nM
IC50 (M059J): > 5000 nM
IC50 (CAL-39): 415 nM
IC50 (DSH1): > 5000 nM
IC50 (SK-MEL3): 2460 nM
IC50 (SK-N-DZ): > 5000 nM
IC50 (HCC1806): > 5000 nM

O=C1N=C(NCc2cccs2)S/C1=C\c1ccc2ncccc2c1
IC50 (MDA-MB-175-VII): > 5000 nM
IC50 (CAL-54): > 5000 nM
IC50 (MHH-PREB-1): > 5000 nM
IC50 (NMC-G1): > 5000 nM
IC50 (BCPAP): > 5000 nM
IC50 (Ca-Ski): > 5000 nM
IC50 (HEL): > 5000 nM
IC50 (COLO-800): > 5000 nM
IC50 (MCF7): > 5000 nM
IC50 (BHY): > 5000 nM
IC50 (SK-MEL-2): > 5000 nM
IC50 (EW-18): > 5000 nM
IC50 (NB5): > 5000 nM
IC50 (KYSE-410): > 5000 nM
IC50 (HAL-01): > 5000 nM
IC50 (NCI-H1155): > 5000 nM
IC50 (KYSE-450): > 5000 nM
IC50 (A498): > 5000 nM
IC50 (GMS-10): > 5000 nM
IC50 (LCLC-97TM1): > 5000 nM
IC50 (ONS-76): > 5000 nM
IC50 (A673): > 5000 nM
IC50 (GOTO): > 5000 nM
IC50 (NCI-H1792): > 5000 nM
IC50 (CAL-33): > 5000 nM
IC50 (CCRF-CEM): > 5000 nM
IC50 (MFM-223): > 5000 nM
IC50 (ASPC1): > 5000 nM
IC50 (MZ7-mel): > 5000 nM
IC50 (NCI-H1651): > 5000 nM
IC50 (NCI-H1437): > 5000 nM
IC50 (TE-12): > 5000 nM
IC50 (GI-ME-N): > 5000 nM
IC50 (NCI-H1648): > 5000 nM
IC50 (HDLM-2): > 5000 nM
IC50 (TE-1): > 5000 nM
IC50 (GP5d): > 5000 nM
IC50 (H4): 1160 nM
IC50 (MOLT-4): > 5000 nM
IC50 697: > 5000 nM
IC50 (VMRC-RCZ): > 5000 nM
IC50 (SW756): > 5000 nM
IC50 (ES3): > 5000 nM
IC50 (HuO-3N1): > 5000 nM
IC50 (NCI-H82): > 5000 nM
IC50 (M059J): > 5000 nM
IC50 (CAL-39): > 5000 nM
IC50 (DSH1): > 5000 nM
IC50 (SK-MEL3): > 5000 nM
IC50 (SK-N-DZ): 2020 nM
IC50 (HCC1806): > 5000 nM

COc1ccc(-c2ccc3c(N4CCOC[C@@H]4C)nc(N4CCOC[C@@H]4C)nc3n2)cc1CO [AZD-8055]
IC50 (MDA-MB-175-VII): 577 nM
IC50 (CAL-54): 1830 nM
IC50 (MHH-PREB-1): 747 nM
IC50 (NMC-G1): 1310 nM
IC50 (BCPAP): 588 nM
IC50 (Ca-Ski): > 2000 nM
IC50 (HEL): 1940 nM
IC50 (COLO-800): 698 nM
IC50 (MCF7): 405 nM
IC50 (BHY): 887 nM
IC50 (SK-MEL-2): 642 nM
IC50 (EW-18): 141 nM
IC50 (NB5): 703 nM
IC50 (KYSE-410): 1270 nM
IC50 (HAL-01): 203 nM
IC50 (NCI-H1155): > 2000 nM
IC50 (KYSE-450): 827 nM
IC50 (A498): > 2000 nM
IC50 (GMS-10): 1750 nM
IC50 (LCLC-97TM1): 1410 nM
IC50 (ONS-76): > 2000 nM
IC50 (A673): > 2000 nM
IC50 (GOTO): 1740 nM
IC50 (NCI-H1792): 971 nM
IC50 (CAL-33): 865 nM
IC50 (CCRF-CEM): > 2000 nM
IC50 (MFM-223): 426 nM
IC50 (ASPC1): 738 nM
IC50 (MZ7-mel): > 2000 nM
IC50 (NCI-H1651): > 2000 nM
IC50 (NCI-H1437): 606 nM
IC50 (TE-12): 1410 nM
IC50 (GI-ME-N): 1030 nM
IC50 (NCI-H1648): 702 nM
IC50 (HDLM-2): 1210 nM
IC50 (TE-1): > 2000 nM
IC50 (GP5d): > 2000 nM
IC50 (H4): 601 nM
IC50 (MOLT-4): 677 nM
IC50 697: 274 nM
IC50 (VMRC-RCZ): 785 nM
IC50 (SW756): > 2000 nM
IC50 (ES3): 1130 nM
IC50 (HuO-3N1): 384 nM
IC50 (NCI-H82): > 2000 nM
IC50 (M059J): > 2000 nM
IC50 (CAL-39): 523 nM
IC50 (DSH1): > 2000 nM
IC50 (SK-MEL3): 1250 nM
IC50 (SK-N-DZ): > 2000 nM
IC50 (HCC1806): 933 nM
